From patent US20240123079A1 (Seagen Inc., priority 2021, published 2024)
pEC50: −log10 of the molar value.

Test system: THP1-Dual™ reporter cells
Experiment: THP1-Dual cell reporter assay (IRF-Lucia luciferase reporter)
Type: cell-based, human
Conditions: for pEC50: Homo sapiens, THP1-Dual, free compounds, 24 h, Lucia reporter signal, read-out: EC50; for EC50 (ng/mL): ADCs: drug linker conjugated to a targeted mAb, 48 h
Outline: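 THP1-Dual monocytic cells (~100,000/well) were exposed to compound for 24 h (ADCs 48 h). Secreted IRF-driven Lucia luciferase in the supernatant was quantified by QUANTI-Luc luminescence.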

| pEC50 | SMILES | EC50 (ng/mL) |
| --- | --- | --- |
| 5.75 | CCn1nc(C)cc1C(=O)Nc1nc2cc(C(N)=O)cc(OC)c2n1C/C=C/Cn1c(NC(=O)c2cc(C)nn2C)nc2cc(C(N)=O)cc(OCCC3CNC3)c21 [Compound 140, (E)-7-(2-(azetidin-3-yl)ethoxy)-1-(4-(5-carbamoyl-2-(1-ethyl-3-methyl-1H-pyrazole-5-carboxamido)-7-methoxy-1H-benzo[d]imidazol-1-yl)but-2-en-1-yl)-2-(1,3-dimethyl-1H-pyrazole-5-carboxamido)-1H-benzo[d]imidazole-5-carboxamide] | – |
| 6.80 | CCc1nc(C)oc1C(=O)Nc1nc2cc(C(N)=O)cc(OCCC3CNC3)c2n1C/C=C/Cn1c(NC(=O)c2cc(C)nn2CC)nc2cc(C(N)=O)cc(OC)c21 [Compound 141, (E)-N-(7-(2-(azetidin-3-yl)ethoxy)-5-carbamoyl-1-(4-(5-carbamoyl-2-(1-ethyl-3-methyl-1H-pyrazole-5-carboxamido)-7-methoxy-1H-benzo[d]imidazol-1-yl)but-2-en-1-yl)-1H-benzo[d]imidazol-2-yl)-4-ethyl-2-methyloxazole-5-carboxamide] | – |
| 5.95 | CCn1nc(C)cc1C(=O)Nc1nc2cc(C(N)=O)cc(OC)c2n1C/C=C/Cn1c(NC(=O)c2cc(C)nn2C)nc2cc(C(N)=O)cc(OCCCOC3CNC3)c21 [Compound 142, (E)-7-(3-(azetidin-3-yloxy)propoxy)-1-(4-(5-carbamoyl-2-(1-ethyl-3-methyl-1H-pyrazole-5-carboxamido)-7-methoxy-1H-benzo[d]imidazol-1-yl)but-2-en-1-yl)-2-(1,3-dimethyl-1H-pyrazole-5-carboxamido)-1H-benzo[d]imidazole-5-carboxamide] | – |
| 6.81 | CCc1nc(C)oc1C(=O)Nc1nc2cc(C(N)=O)cc(OCCCOC3CNC3)c2n1C/C=C/Cn1c(NC(=O)c2cc(C)nn2CC)nc2cc(C(N)=O)cc(OC)c21 [Compound 143, (E)-N-(7-(3-(azetidin-3-yloxy)propoxy)-5-carbamoyl-1-(4-(5-carbamoyl-2-(1-ethyl-3-methyl-1H-pyrazole-5-carboxamido)-7-methoxy-1H-benzo[d]imidazol-1-yl)but-2-en-1-yl)-1H-benzo[d]imidazol-2-yl)-4-ethyl-2-methyloxazole-5-carboxamide] | – |
| – | CCn1nc(C)cc1C(=O)Nc1nc2cc(S(N)(=O)=O)ccc2n1C/C=C/Cn1c(NC(=O)c2cc(C)nn2CC)nc2cc(C(N)=O)cc(OCCC3CN(C(=O)CCN4C(=O)C=CC4=O)C3)c21 [Compound 144, (E)-7-(2-(1-(3-(2,5-dioxo-2,5-dihydro-1H-pyrrol-1-yl)propanoyl)azetidin-3-yl)ethoxy)-2-(1-ethyl-3-methyl-1H-pyrazole-5-carboxamido)-1-(4-(2-(1-ethyl-3-methyl-1H-pyrazole-5-carboxamido)-5-sulfamoyl-1H-benzo[d]imidazol-1-yl)but-2-en-1-yl)-1H-benzo[d]imidazole-5-carboxamide] | >10,000 ng/mL |
| – | CCn1nc(C)cc1C(=O)Nc1nc2cc(S(N)(=O)=O)ccc2n1C/C=C/Cn1c(NC(=O)c2cc(C)nn2C)nc2cc(C(N)=O)cc(OCCC3CN(C(=O)CCN4C(=O)C=CC4=O)C3)c21 [Compound 145, (E)-2-(1,3-dimethyl-1H-pyrazole-5-carboxamido)-7-(2-(1-(3-(2,5-dioxo-2,5-dihydro-1H-pyrrol-1-yl)propanoyl)azetidin-3-yl)ethoxy)-1-(4-(2-(1-ethyl-3-methyl-1H-pyrazole-5-carboxamido)-5-sulfamoyl-1H-benzo[d]imidazol-1-yl)but-2-en-1-yl)-1H-benzo[d]imidazole-5-carboxamide] | >10,000 ng/mL |
| – | CCn1nc(C)cc1C(=O)Nc1nc2cc(S(N)(=O)=O)ccc2n1C/C=C/Cn1c(NC(=O)c2cc(C)nn2CC)nc2cc(C(N)=O)cc(OCCCOC3CN(C(=O)CCN4C(=O)C=CC4=O)C3)c21 [Compound 146, (E)-7-(3-((1-(3-(2,5-dioxo-2,5-dihydro-1H-pyrrol-1-yl)propanoyl)azetidin-3-yl)oxy)propoxy)-2-(1-ethyl-3-methyl-1H-pyrazole-5-carboxamido)-1-(4-(2-(1-ethyl-3-methyl-1H-pyrazole-5-carboxamido)-5-sulfamoyl-1H-benzo[d]imidazol-1-yl)but-2-en-1-yl)-1H-benzo[d]imidazole-5-carboxamide] | >10,000 ng/mL |
| – | CCn1nc(C)cc1C(=O)Nc1nc2cc(S(N)(=O)=O)ccc2n1C/C=C/Cn1c(NC(=O)c2cc(C)nn2C)nc2cc(C(N)=O)cc(OCCCOC3CN(C(=O)CCN4C(=O)C=CC4=O)C3)c21 [Compound 147, (E)-2-(1,3-dimethyl-1H-pyrazole-5-carboxamido)-7-(3-((1-(3-(2,5-dioxo-2,5-dihydro-1H-pyrrol-1-yl)propanoyl)azetidin-3-yl)oxy)propoxy)-1-(4-(2-(1-ethyl-3-methyl-1H-pyrazole-5-carboxamido)-5-sulfamoyl-1H-benzo[d]imidazol-1-yl)but-2-en-1-yl)-1H-benzo[d]imidazole-5-carboxamide] | >10,000 ng/mL |
| – | CCn1nc(C)cc1C(=O)Nc1nc2cc(S(N)(=O)=O)ccc2n1C/C=C/Cn1c(NC(=O)c2cc(C)nn2C)nc2cc(C(N)=O)cc(OCCCN(C)C(=O)CCN3C(=O)C=CC3=O)c21 [Compound 148, (E)-2-(1,3-dimethyl-1H-pyrazole-5-carboxamido)-7-(3-(3-(2,5-dioxo-2,5-dihydro-1H-pyrrol-1-yl)-N-methylpropanamido)propoxy)-1-(4-(2-(1-ethyl-3-methyl-1H-pyrazole-5-carboxamido)-5-sulfamoyl-1H-benzo[d]imidazol-1-yl)but-2-en-1-yl)-1H-benzo[d]imidazole-5-carboxamide] | >10,000 ng/mL |
| < 5.00 | CCc1nc(C)oc1C(=O)Nc1nc2cc(C(N)=O)cc(OCCC3CN(C(=O)CCN4C(=O)CC(SC[C@H](N)C(=O)O)C4=O)C3)c2n1C/C=C/Cn1c(NC(=O)c2cc(C)nn2CC)nc2cc(C(N)=O)cc(OC)c21 (stereo partly drawn) [Compound 154, S-(1-(3-(3-(2-((5-carbamoyl-1-((E)-4-(5-carbamoyl-2-(1-ethyl-3-methyl-1H-pyrazole-5-carboxamido)-7-methoxy-1H-benzo[d]imidazol-1-yl)but-2-en-1-yl)-2-(4-ethyl-2-methyloxazole-5-carboxamido)-1H-benzo[d]imidazol-7-yl)oxy)ethyl)azetidin-1-yl)-3-oxopropyl)-2,5-dioxopyrrolidin-3-yl)-L-cysteine] | – |
| 7.03 | CCn1nc(C)cc1C(=O)Nc1nc2cc(C(N)=O)cc(OC)c2n1C/C=C/Cn1c(NC(=O)c2cc(C)nn2C)nc2cc(C(N)=O)cc(OCCCOC3CN(C(=O)CCN4C(=O)CC(SC[C@H](N)C(=O)O)C4=O)C3)c21 (stereo partly drawn) [Compound 155, S-(1-(3-(3-(3-((5-carbamoyl-1-((E)-4-(5-carbamoyl-2-(1-ethyl-3-methyl-1H-pyrazole-5-carboxamido)-7-methoxy-1H-benzo[d]imidazol-1-yl)but-2-en-1-yl)-2-(1,3-dimethyl-1H-pyrazole-5-carboxamido)-1H-benzo[d]imidazol-7-yl)oxy)propoxy)azetidin-1-yl)-3-oxopropyl)-2,5-dioxopyrrolidin-3-yl)-L-cysteine] | – |
| 5.81 | CCc1nc(C)oc1C(=O)Nc1nc2cc(C(N)=O)cc(OCCCOC3CN(C(=O)CCN4C(=O)CC(SC[C@H](N)C(=O)O)C4=O)C3)c2n1C/C=C/Cn1c(NC(=O)c2cc(C)nn2CC)nc2cc(C(N)=O)cc(OC)c21 (stereo partly drawn) [Compound 156, S-(1-(3-(3-(3-((5-carbamoyl-1-((E)-4-(5-carbamoyl-2-(1-ethyl-3-methyl-1H-pyrazole-5-carboxamido)-7-methoxy-1H-benzo[d]imidazol-1-yl)but-2-en-1-yl)-2-(4-ethyl-2-methyloxazole-5-carboxamido)-1H-benzo[d]imidazol-7-yl)oxy)propoxy)azetidin-1-yl)-3-oxopropyl)-2,5-dioxopyrrolidin-3-yl)-L-cysteine] | – |
